The source of these data is PubChem BioAssay AID1224921 (Broad Institute, 2016).

The test system of the experiment is Clostridioides difficile clinical isolate growth, OD600, 24 h. The experiment in a line: C. difficile growth inhibition, confirmation, 4-point retest (AID 1224921).

What is called AC50 is the midpoint of the concentration-response curve, whichever way the signal moves.

Active and inactive are the calls of the source. No rule for the calls is given here.

Regarding `N#C[C@H]1[C@H](c2ccc(C#Cc3ccc(F)cc3)cc2)[C@@H](CO)N1C(=O)C1CCCC1`, the AC50 is > 70 µM (inactive). In the case of `CCCN(C)C[C@H]1OCCCC[C@@H](C)Oc2ccc(NC(=O)Nc3ccc(C(F)(F)F)cc3)cc2C(=O)N([C@@H](C)CO)C[C@H]1C`, the AC50 was 10.5 µM. Take `C=C1CC(c2ccc(-c3ccccc3)cc2)OC1=O` (stereo unspecified): the AC50 was 13.7 µM.

In the case of `CCC(=O)N[C@H]1CC[C@H](CCNC(=O)Nc2ccc(C(F)(F)F)cc2)O[C@H]1CO`, the AC50 was 16.5 µM. With `CC(C)NC(=O)N(C)C[C@@H]1Oc2c(NC(=O)Nc3ccc(C(F)(F)F)cc3)cccc2C(=O)N([C@H](C)CO)C[C@@H]1C` the figure was 23.3 µM; with `COc1ccc(-c2ccc([C@H]3[C@@H](C#N)N(C(=O)C4CCC4)[C@H]3CO)cc2)cc1`, > 70 µM (inactive); with `CNC(=O)C[C@@H]1CC[C@@H]2[C@H](COC[C@H](O)CN2C(=O)Nc2ccc(Cl)c(Cl)c2)O1`, 3.06 µM. With `O=C(C[C@H]1CC[C@@H]2[C@H](COC[C@H](O)CN2C(=O)Nc2ccc(Cl)c(Cl)c2)O1)NCc1ccc(F)cc1` the figure was 1.91 µM. Turning to `CN(C)CC(=O)N[C@@H]1CC[C@@H](CCNC(=O)Nc2ccc(C(F)(F)F)cc2)O[C@H]1CO`, the half-maximal activity concentration (AC50) was 4.63 µM. With `C[C@H]1CN([C@@H](C)CO)C(=O)CCCn2nncc2CO[C@@H]1CN(C)C(=O)Nc1ccc(C(F)(F)F)cc1` the figure was 17.7 µM; with `O=C(C[C@H]1CC[C@@H]2[C@H](COC[C@@H](O)CN2C(=O)Nc2ccc(Cl)c(Cl)c2)O1)NC1CCC1`, 8.68 µM; with `C[C@H](CO)N1C[C@H](C)[C@@H](CN(C)C(=O)Nc2ccc(C(F)(F)F)cc2)Oc2ccc(NC(=O)C3CC3)cc2C1=O`, 15.5 µM.

Consider `O=C(C[C@H]1CC[C@@H]2[C@H](COC[C@@H](O)CN2C(=O)Nc2ccc(Cl)c(Cl)c2)O1)NCc1ccncc1`, for which the concentration at half-maximal activity (AC50) is 4.06 µM. The same measure for `C[C@@H]1CCCCO[C@H](CN(C)Cc2ccccc2)[C@@H](C)CN([C@@H](C)CO)C(=O)c2cc(NC(=O)Nc3ccc(C(F)(F)F)cc3)ccc2O1`: 12.5 µM. The same measure for `CNC(=O)C[C@@H]1CC[C@H]2[C@@H](COC[C@H](O)CN2C(=O)Nc2ccc(Cl)c(Cl)c2)O1`: 7.63 µM.

`CNC(=O)C[C@H]1CC[C@H]2[C@@H](COC[C@H](O)CN2C(=O)Nc2ccc(Cl)c(Cl)c2)O1`: the AC50 is less than 1.95 µM. With `C[C@@H]1CN([C@@H](C)CO)C(=O)c2cccc(NC(=O)Nc3ccc(C(F)(F)F)cc3)c2O[C@@H]1CN(C)Cc1ccc(-c2ccccc2)cc1` the figure was less than 0.5 µM; with `CO[C@H](CN(C)Cc1cc(F)ccc1F)[C@H](C)CN(C(=O)Nc1ccc(C(F)(F)F)cc1)[C@@H](C)CO`, 7.48 µM. With `CCNC(=O)C[C@@H]1CC[C@@H]2[C@H](COC[C@H](O)CN2C(=O)Nc2ccc(C(F)(F)F)cc2)O1` the figure was 11.8 µM; with `COc1ccc(CN(C)C[C@@H]2OCCCC[C@H](C)Oc3ccc(NC(=O)Nc4ccc(C(F)(F)F)cc4)cc3C(=O)N([C@H](C)CO)C[C@H]2C)cc1`, 3.24 µM. Take `CN(C)CC(=O)N[C@@H]1CC[C@@H](CCNC(=O)Nc2ccc(C(F)(F)F)cc2)O[C@@H]1CO`: the half-maximal activity concentration (AC50) was 4.58 µM. With `C[C@@H]1CCCCO[C@@H](CN(C)CC2CCCCC2)[C@H](C)CN([C@H](C)CO)C(=O)c2cc(NC(=O)Nc3ccc(C(F)(F)F)cc3)ccc2O1` the figure was 16.2 µM; with `COc1ccc(C(=O)Nc2ccc3c(c2)OC[C@@H](C)N(C(C)=O)C[C@H](C)[C@@H](OC)CN(C)C3=O)cc1`, > 60 µM (inactive). For `C[C@H](CO)N1C[C@H](C)[C@H](CN(C)CC2CCCCC2)Oc2ccc(NC(=O)Nc3ccc(C(F)(F)F)cc3)cc2C1=O`, the AC50 was 15.2 µM. `COc1ccc(CN(C)C[C@H]2OCCCC[C@H](C)Oc3ccc(NC(=O)Nc4ccc(C(F)(F)F)cc4)cc3C(=O)N([C@@H](C)CO)C[C@@H]2C)cc1`: the AC50 is 16.6 µM. The same measure for `O=C(C[C@@H]1CC[C@@H]2[C@H](COC[C@H](O)CN2C(=O)Nc2cc(Cl)cc(Cl)c2)O1)N1CCCCC1`: 1.41 µM.

For the compound `C[C@H](C(=O)N(C)C[C@@H]1OCc2ccccc2-c2ccccc2C(=O)N([C@H](C)CO)C[C@@H]1C)c1ccccc1`, the AC50 was > 60 µM (inactive). Consider `C[C@@H]1CCCCO[C@@H](CN(C)Cc2ccc3c(c2)OCO3)[C@H](C)CN([C@@H](C)CO)C(=O)c2cc(NC(=O)Nc3ccc(C(F)(F)F)cc3)ccc2O1`, for which the AC50 is > 60 µM (inactive).

As to `C[C@@H]1CN([C@H](C)CO)C(=O)Cc2cc(NC(=O)CCCN(C)C)ccc2O[C@H]1CN(C)Cc1ccc(-c2ccccc2)cc1`, the concentration at half-maximal activity (AC50) is 19 µM.

`COc1ccccc1CNC(=O)C[C@@H]1CC[C@@H]2[C@H](COC[C@@H](O)CN2C(=O)Nc2ccc(C(F)(F)F)cc2)O1`: the concentration at half-maximal activity (AC50) is 1.6 µM. With `COCC(=O)N1C[C@H](C)[C@H](OC)CN(C)C(=O)c2ccc(NC(=O)NC(C)C)cc2OC[C@H]1C` the figure was > 60 µM (inactive); with `C[C@H](CO)N1C[C@H](C)[C@@H](CN(C)Cc2ccccc2)Oc2ccc(NC(=O)Nc3ccc(C(F)(F)F)cc3)cc2CC1=O`, 31.4 µM.

With `COc1ccc(C#Cc2cnc3c(c2)C(=O)N([C@@H](C)CO)C[C@@H](C)[C@H](CN(C)CC2CCCC2)O3)cc1`, the AC50 was 13.1 µM. With `C[C@@H]1CN([C@@H](C)CO)C(=O)Cc2cc(NC(=O)Nc3ccc(C(F)(F)F)cc3)ccc2O[C@H]1CN(C)Cc1ccccc1` the figure was 17.9 µM; with `O=C(C[C@H]1CC[C@@H](NC(=O)CCN2CCCCC2)[C@H](CO)O1)Nc1nccs1`, > 60 µM (inactive); with `C[C@H]1CCCCO[C@H](CN(C)CC2CC2)[C@@H](C)CN([C@@H](C)CO)C(=O)c2cc(NC(=O)Nc3ccc(C(F)(F)F)cc3)ccc2O1`, 5.12 µM. `CN(C)CC(=O)N[C@@H]1C=C[C@@H](CC(=O)NCCN2CCCCC2)O[C@H]1CO`: the AC50 is > 60 µM (inactive). Take `CNC[C@@H]1OCCCC[C@H](C)Oc2ccc(NC(=O)Nc3ccc(C(F)(F)F)cc3)cc2C(=O)N([C@H](C)CO)C[C@H]1C`: the AC50 was 19.4 µM.

`C[C@@H]1CCCCO[C@@H](CN(C)C(=O)CCCN(C)C)[C@H](C)CN([C@H](C)CO)C(=O)c2cc(NC(=O)Nc3ccc(C(F)(F)F)cc3)ccc2O1`: the AC50 was 7.16 µM. With `O=C(C[C@@H]1CC[C@H]2[C@@H](COC[C@H](O)CN2C(=O)Nc2cc(Cl)cc(Cl)c2)O1)N1CCOCC1` the figure was 17.6 µM; with `O=C(C[C@@H]1CC[C@@H]2[C@H](COC[C@H](O)CN2C(=O)Nc2ccc(Cl)c(Cl)c2)O1)NCc1ccc(Cl)c(Cl)c1`, 1.14 µM; with `CO[C@H]1CN(C)C(=O)c2cc(NC(=O)Nc3cc(Cl)cc(Cl)c3)ccc2OC[C@H](C)NC[C@H]1C`, 11.6 µM.

Consider `O=C(C[C@H]1CC[C@H]2[C@@H](COC[C@H](O)CN2S(=O)(=O)c2ccccc2)O1)NCC1CCCCC1`, for which the AC50 was 13.5 µM. With `O=C(NCC[C@H]1CC[C@@H](NC(=O)Nc2cc(F)ccc2F)[C@H](CO)O1)Nc1ccc(Cl)cc1` the figure was 18.5 µM; with `O=C(C[C@@H]1CC[C@H]2[C@@H](COC[C@@H](O)CN2C(=O)Nc2ccc(C(F)(F)F)cc2)O1)NCCc1ccncc1`, 4.89 µM. With `C[C@@H]1CN([C@@H](C)CO)C(=O)c2cc(NC(=O)Nc3ccc(C(F)(F)F)cc3)ccc2O[C@@H]1CN(C)CC1CCCCC1` the figure was 9.84 µM; with `O=C(C[C@H]1CC[C@H]2[C@@H](COC[C@H](O)CN2C(=O)Nc2ccc(C(F)(F)F)cc2)O1)NCCc1ccncc1`, 2.37 µM; with `O=C(Nc1ccc(-c2ccccc2)cc1)[C@@H]1[C@@H](CO)[C@@H]2Cn3c(cccc3=O)[C@@H]2N1CC1CCCCC1`, > 60 µM (inactive). For the compound `CO[C@@H]1CN(C)C(=O)c2cc(NC(=O)Nc3cc(Cl)cc(Cl)c3)ccc2OC[C@H](C)NC[C@H]1C`, the AC50 is 5.04 µM.

As for `CO[C@H]1CN(C)C(=O)c2ccc(NC(=O)Nc3cc(Cl)cc(Cl)c3)cc2OC[C@@H](C)NC[C@@H]1C`, the AC50 was 15.9 µM. With `C[C@@H]1CN([C@H](C)CO)C(=O)c2cccc(NC(=O)Nc3ccc(C(F)(F)F)cc3)c2O[C@@H]1CN(C)Cc1ccc(Oc2ccccc2)cc1` the figure was 18.8 µM; with `COc1cccc(C#Cc2ccc3c(c2)O[C@@H](CN(C)C)[C@H](C)CN([C@H](C)CO)S3(=O)=O)c1`, 25.8 µM; with `CO[C@H]1CN(C)C(=O)c2cc(NC(=O)Nc3cc(Cl)cc(Cl)c3)ccc2OC[C@H](C)NC[C@@H]1C`, 9.09 µM. With `O=C(C[C@H]1CC[C@@H]2[C@H](COC[C@@H](O)CN2C(=O)Nc2ccc(Cl)c(Cl)c2)O1)NCc1ccccc1` the figure was 4.01 µM. In the case of `CO[C@@H](CN(C)Cc1cc(F)ccc1F)[C@H](C)CN(C(=O)Nc1ccc(C(F)(F)F)cc1)[C@H](C)CO`, the half-maximal activity concentration (AC50) was 5.25 µM. The same measure for `CCCNC(=O)N1[C@@H](C#N)[C@H](c2ccc(C#Cc3ccc(F)cc3)cc2)[C@@H]1CO`: 36.3 µM; for `O=C(NCC[C@@H]1CC[C@H](NC(=O)C2CC2)[C@@H](CO)O1)Nc1ccc(C(F)(F)F)cc1`: 1.95 µM. With `C[C@@H]1CN([C@@H](C)CO)C(=O)c2cccc(NC(=O)Nc3ccccc3)c2O[C@@H]1CN(C)Cc1ccc(C(F)(F)F)cc1` the figure was 8.02 µM; with `CO[C@H](CN(C)C(=O)C1CCOCC1)[C@@H](C)CN(C(=O)Nc1ccc(C(F)(F)F)cc1)[C@@H](C)CO`, 3.16 µM.

For the compound `CCCNC(=O)C[C@@H]1CC[C@@H]2[C@H](COC[C@H](O)CN2C(=O)Nc2ccc(Cl)c(Cl)c2)O1`, the half-maximal activity concentration (AC50) is 3.54 µM. For the compound `CO[C@H](CN(C)S(=O)(=O)c1cn(C)cn1)[C@@H](C)CN(C(=O)Nc1ccc(C(F)(F)F)cc1)[C@H](C)CO`, the half-maximal activity concentration (AC50) was 2.16 µM. On to `C[C@@H]1CN([C@H](C)CO)C(=O)Cc2cc(NS(=O)(=O)c3ccc(Cl)cc3)ccc2O[C@H]1CN(C)CC1CCCCC1`, for which the half-maximal activity concentration (AC50) is 18 µM. Consider `CO[C@@H]1CN(C)C(=O)c2ccc(NC(=O)C3CCC3)cc2OC[C@@H](C)N(C(=O)Nc2ccc(C(F)(F)F)cc2)C[C@H]1C`, for which the AC50 is 11.6 µM. On to `CCC(=O)N[C@@H]1CC[C@@H](CCNC(=O)Nc2ccc(C(F)(F)F)cc2)O[C@H]1CO`, for which the concentration at half-maximal activity (AC50) was 2.75 µM.

For `O=C(C[C@@H]1CC[C@H]2[C@@H](COC[C@@H](O)CN2C(=O)Nc2cc(Cl)cc(Cl)c2)O1)N1CCCCC1`, the AC50 is 6.58 µM.

As to `O=C(C[C@@H]1C[C@H]2c3cc(NC(=O)NC4CCCC4)ccc3O[C@H]2[C@H](CO)O1)NCc1ccc2c(c1)OCO2`, the AC50 is > 60 µM (inactive).
